Our source for the Emax and CC50 values is patent publication US9663528B2, “Substituted 1,2,3,4,6,8,12,12a-octahydro-1,4-methanodipyrido[1,2-a:1',2'-d]pyrazines and methods for treating viral infections” (priority 2012, dated 2017).

One data set addresses PXR (Homo sapiens (Human), UniProt O75469). The data set can be described thus: Human PXR activation assay (luciferase reporter gene assay, DPX2 cells). In kind it is cell-based. As to conditions: human. Here is the method:
A stably transformed tumor cell line (DPX2) was plated on 96-well microtiter plates. DPX2 cells harbor the human PXR gene (NR112) and a luciferase reporter gene linked to two promoters identified in the human CYP3A4 gene, namely XREM and PXRE. […] The number of viable cells was determined and the reporter gene activity was assessed. Positive control: […]
In general terms: Reporter assays use an easily measured gene product as a stand-in for the process of interest.

A short description of another data set: in vitro. As to conditions: human, CC50 nM in MT-4. Here is the method: For the antiviral assay utilizing MT4 cells, 0.4 μL of […] test concentration of 3-fold serially diluted compound in DMSO was added to 40 μL of cell growth medium (RPMI 1640, 10% FBS, 1% penicilline/Streptomycine, 1% L-Glutamine, 1% HEPES) in each well of 384-well assay plates (10 concentrations) in quidruplicate.
1 mL aliquots of 2×10^6 MT4 cells are pre-infected for 1 and 3 hours respectively at 37° C. with 25 μL (MT4) or of either cell growth medium (mock-infected) or a fresh 1:250 dilution of an HIV-IIIb concentrated ABI stock (0.004 m.o.i. for MT4 cells). Infected and uninfected cells are diluted in cell growth medium and 35 μL of 2000 (for MT4) cells is added to each well of the assay plates.
Assay plates were then incubated in a 37° C. incubator. After 5 days of incubation, 25 μL of 2× concentrated CellTiter-Glo™ Reagent (catalog #G7573, Promega Biosciences, Inc., Madison, Wis.) was added to each well of the assay plate. Cell lysis was carried out by incubating at room temperature for 2-3 minutes, and then chemiluminescence was read using the Envision reader (PerkinElmer).

In general, Emax refers to the greatest response seen or fitted, relative to the assay's reference.

Sequence of PXR (O75469 whole entry): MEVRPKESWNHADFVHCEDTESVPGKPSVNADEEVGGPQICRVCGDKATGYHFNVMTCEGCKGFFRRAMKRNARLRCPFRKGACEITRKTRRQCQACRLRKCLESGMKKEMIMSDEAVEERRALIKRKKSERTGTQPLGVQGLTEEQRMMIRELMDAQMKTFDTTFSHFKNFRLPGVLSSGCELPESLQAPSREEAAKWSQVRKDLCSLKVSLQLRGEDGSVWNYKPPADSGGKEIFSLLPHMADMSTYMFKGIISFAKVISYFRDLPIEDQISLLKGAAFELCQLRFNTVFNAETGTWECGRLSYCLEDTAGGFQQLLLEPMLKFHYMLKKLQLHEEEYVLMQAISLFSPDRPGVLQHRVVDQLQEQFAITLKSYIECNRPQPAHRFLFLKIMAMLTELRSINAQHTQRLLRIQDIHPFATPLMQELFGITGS

`O=C(NCc1c(F)cccc1F)c1cn2c(c(O)c1=O)C(=O)N1[C@@H]3CC[C@@H](C3)O[C@H]1C2` [Compound 46, (13aS)-N-(2,6-difluorobenzyl)-8-hydroxy-7,9-dioxo-2,3,4,5,7,9,13,13a-octahydro-2,5-methanopyrido[1′,2′:4,5]pyrazino[2,1-b][1,3]oxazepine-10-carboxamide]: the Emax at 24 h, 15 µM at PXR was determined as 34%. Further, the CC50 at 5 days in “in vitro” came out at 19300 nM.
For `O=C(N[C@@H](c1ccc(F)cc1F)C(F)(F)F)c1cn2c(c(O)c1=O)C(=O)N1C(C2)O[C@@H]2CC[C@H]1C2` (stereo partly drawn) [Compound 54, (2R,5S)-N—((S)-1-(2,4-difluorophenyl)-2,2,2-trifluoroethyl)-8-hydroxy-7,9-dioxo-2,3,4,5,7,9,13,13a-octahydro-2,5-methanopyrido[1′,2′:4,5]pyrazino[2,1-b][1,3]oxazepine-10-carboxamide], in that order: 2% and 3240 nM.
For `O=C(NCc1c(F)cc(F)cc1F)c1cn2c(c(O)c1=O)C(=O)N1[C@@H]3C[C@H]([C@@H]1C2)C(F)(F)C3` [Compound 57, (1R,4R,12aR)-2,2-difluoro-7-hydroxy-6,8-dioxo-N-(2,4,6-trifluorobenzyl)-1,2,3,4,6,8,12,12a-octahydro-1,4-methanodipyrido[1,2-a:1′,2′-d]pyrazine-9-carboxamide], the Emax at 24 h, 15 µM on PXR worked out at 3%. Also, the CC50 at 5 days in “in vitro” was found to be 11800 nM.
For `O=C(NCc1ccc(F)c(Cl)c1F)c1cn2c(c(O)c1=O)C(=O)N1[C@@H]3C[C@H]([C@@H]1C2)C(F)(F)C3` [Compound 58, (1R,4R,12aR)-N-(3-chloro-2,4-difluorobenzyl)-2,2-difluoro-7-hydroxy-6,8-dioxo-1,2,3,4,6,8,12,12a-octahydro-1,4-methanodipyrido[1,2-a:1′,2′-d]pyrazine-9-carboxamide], in that order: 1% and 7690 nM.
For `O=C(NCc1c(F)cc(F)cc1F)c1cn2c(c(O)c1=O)C(=O)N1[C@@H]3C[C@@H]([C@H](F)C3)[C@@H]1C2` [Compound 59, (1R,2R,4R,12aR)-2-fluoro-7-hydroxy-6,8-dioxo-N-(2,4,6-trifluorobenzyl)-1,2,3,4,6,8,12,12a-octahydro-1,4-methanodipyrido[1,2-a:1′,2′-d]pyrazine-9-carboxamide], the Emax at 24 h, 15 µM at PXR came to 4%. Further, the CC50 at 5 days in the data set “in vitro” worked out at 22200 nM.
For `O=C(NCc1cccc(Cl)c1Cl)c1cn2c(c(O)c1=O)C(=O)N1[C@H]3CC[C@H](C3)[C@@H]1C2` [Compound 60, (1R,4S,12aR)-N-(2,3-dichlorobenzyl)-7-hydroxy-6,8-dioxo-1,2,3,4,6,8,12,12a-octahydro-1,4-methanodipyrido[1,2-a:1′,2′-d]pyrazine-9-carboxamide], in that order: 3% and 3310 nM.
For `O=C(NCc1ccc(F)c(Cl)c1F)c1cn2c(c(O)c1=O)C(=O)N1[C@H]3CC[C@H](C3)[C@H]1C2` [Compound 61, (1R,4S,12aS)-N-(3-chloro-2,4-difluorobenzyl)-7-hydroxy-6,8-dioxo-1,2,3,4,6,8,12,12a-octahydro-1,4-methanodipyrido[1,2-a:1′,2′-d]pyrazine-9-carboxamide], in that order: 1% and 25900 nM.
For `O=C(NCc1ccc(F)c(F)c1)c1cn2c(c(O)c1=O)C(=O)N1[C@H]3CC[C@H](C3)[C@@H]1C2` [Compound 66, (1R,4S,12aR)-N-(3,4-difluorobenzyl)-7-hydroxy-6,8-dioxo-1,2,3,4,6,8,12,12a-octahydro-1,4-methanodipyrido[1,2-a:1′,2′-d]pyrazine-9-carboxamide], in that order: 0% and 11800 nM.
On PXR, `O=C(NCc1ccc(F)cc1C(F)(F)F)c1cn2c(c(O)c1=O)C(=O)N1[C@H]3CC[C@H](C3)[C@@H]1C2` [Compound 67, (1R,4S,12aR)-N-(4-fluoro-2-(trifluoromethyl)benzyl)-7-hydroxy-6,8-dioxo-1,2,3,4,6,8,12,12a-octahydro-1,4-methanodipyrido[1,2-a:1′,2′-d]pyrazine-9-carboxamide] gave an Emax at 24 h, 15 µM of 0%. In the data set “in vitro”, this compound returned a CC50 at 5 days of 2980 nM.
The corresponding values for `O=C(NCc1ccc(F)cc1Cl)c1cn2c(c(O)c1=O)C(=O)N1[C@H]3CC[C@H](C3)[C@@H]1C2` [Compound 68, (1R,4S,12aR)-N-(2-chloro-4-fluorobenzyl)-7-hydroxy-6,8-dioxo-1,2,3,4,6,8,12,12a-octahydro-1,4-methanodipyrido[1,2-a:1′,2′-d]pyrazine-9-carboxamide] are 6% and 4180 nM.
The corresponding values for `O=C(NCc1ccc(F)c(Cl)c1F)c1cn2c(c(O)c1=O)C(=O)N1[C@H]3CC[C@H](C3)[C@@H]1C2` [Compound 69, (1R,4S,12aR)-N-(3-chloro-2,4-difluorobenzyl)-7-hydroxy-6,8-dioxo-1,2,3,4,6,8,12,12a-octahydro-1,4-methanodipyrido[1,2-a:1′,2′-d]pyrazine-9-carboxamide] are 5% and 4770 nM.
The corresponding values for `Cc1cccc(CNC(=O)c2cn3c(c(O)c2=O)C(=O)N2[C@H]4CC[C@H](C4)[C@@H]2C3)c1F` [Compound 70, (1R,4S,12aR)-N-(2-fluoro-3-methylbenzyl)-7-hydroxy-6,8-dioxo-1,2,3,4,6,8,12,12a-octahydro-1,4-methanodipyrido[1,2-a:1′,2′-d]pyrazine-9-carboxamide] are 10% and 8410 nM.
Turning to `O=C(NCc1c(Cl)ccc(Cl)c1F)c1cn2c(c(O)c1=O)C(=O)N1[C@H]3CC[C@H](C3)[C@@H]1C2` [Compound 71, (1R,4S,12aR)-N-(3,6-dichloro-2-fluorobenzyl)-7-hydroxy-6,8-dioxo-1,2,3,4,6,8, 12,12a-octahydro-1,4-methanodipyrido[1,2-a:1′,2′-d]pyrazine-9-carboxamide], on PXR, the Emax at 24 h, 15 µM is 3%. The CC50 at 5 days in the data set “in vitro” turned out to be 4660 nM.
The corresponding values for `O=C(NCc1cccc(Cl)c1)c1cn2c(c(O)c1=O)C(=O)N1[C@H]3CC[C@H](C3)[C@@H]1C2` [Compound 72, (1R,4S,12aR)-N-(3-chlorobenzyl)-7-hydroxy-6,8-dioxo-1,2,3,4,6,8,12,12a-octahydro-1,4-methanodipyrido[1,2-a:1′,2′-d]pyrazine-9-carboxamide] are 4% and 6260 nM.
For `O=C(NCc1c(F)ccc(Cl)c1F)c1cn2c(c(O)c1=O)C(=O)N1[C@H]3CC[C@H](C3)[C@@H]1C2` [Compound 73, (1R,4S,12aR)-N-(3-chloro-2,6-difluorobenzyl)-7-hydroxy-6,8-dioxo-1,2,3,4,6,8,12,12a-octahydro-1,4-methanodipyrido[1,2-a:1′,2′-d]pyrazine-9-carboxamide], in that order: 7% and 9190 nM.
For `O=C(NCc1ccc(F)c(Cl)c1)c1cn2c(c(O)c1=O)C(=O)N1[C@H]3CC[C@H](C3)[C@@H]1C2` [Compound 75, (1R,4S,12aR)-N-(3-chloro-4-fluorobenzyl)-7-hydroxy-6,8-dioxo-1,2,3,4,6,8,12,12a-octahydro-1,4-methanodipyrido[1,2-a:1′,2′-d]pyrazine-9-carboxamide], in that order: 0% and 5290 nM.
Compound `O=C(NCc1cc(F)c(F)cc1F)c1cn2c(c(O)c1=O)C(=O)N1[C@H]3CC[C@H](C3)[C@@H]1C2` [Compound 79, (1R,4S,12aR)-7-hydroxy-6,8-dioxo-N-(2,4,5-trifluorobenzyl)-1,2,3,4,6,8,12,12a-octahydro-1,4-methanodipyrido[1,2-a:1′,2′-d]pyrazine-9-carboxamide] returned an Emax at 24 h, 15 µM on PXR of 0%. The CC50 at 5 days in the data set “in vitro” was determined as 12100 nM.
For `O=C(NCc1cc(Cl)c(F)cc1F)c1cn2c(c(O)c1=O)C(=O)N1[C@H]3CC[C@H](C3)[C@@H]1C2` [Compound 80, (1R,4S,12aR)-N-(5-chloro-2,4-difluorobenzyl)-7-hydroxy-6,8-dioxo-1,2,3,4,6,8,12,12a-octahydro-1,4-methanodipyrido[1,2-a:1′,2′-d]pyrazine-9-carboxamide], in that order: 2% and 5040 nM.
For `O=C(NCc1c(F)cc(F)cc1F)c1cn2c(c(O)c1=O)C(=O)N1[C@H](C2)[C@H]2C[C@H](F)[C@@H]1C2` [Compound 81, (1R,3S,4S,12aS)-3-fluoro-7-hydroxy-6,8-dioxo-N-(2,4,6-trifluorobenzyl)-1,2,3,4,6,8,12,12a-octahydro-1,4-methanodipyrido[1,2-a:1′,2′-d]pyrazine-9-carboxamide], in that order: 1% and 12300 nM.
The corresponding values for `C[C@@H]1C[C@H]2C[C@@H]1[C@@H]1Cn3cc(C(=O)NCc4c(F)cc(F)cc4F)c(=O)c(O)c3C(=O)N21` [Compound 84, (1S,2R,4S,12aR)-7-hydroxy-2-methyl-6,8-dioxo-N-(2,4,6-trifluorobenzyl)-1,2,3,4,6,8,12,12a-octahydro-1,4-methanodipyrido[1,2-a:1′,2′-d]pyrazine-9-carboxamide] are 21% and 9730 nM.
